Test results reported in ChEMBL document CHEMBL5154727, “Discovery of novel diphenylbutene derivative ferroptosis inhibitors as neuroprotective agents” (Eur J Med Chem, 2022).
Activity calls are given as the source filed them. The rule behind the calls is not given here.

Key:
HT-22 [1] = assay: Anti-ferroptotic activity against Erastin-induced ferroptosis in […] cells assessed as […] cell viability measured after 24 hrs by MTT assay; assay type: functional, cell-based; conditions: Mus musculus, HT-22, 24 h
[2] = Permeability of the compound in PBS/EtOH buffer (70:30) incubated for 10 hrs by UV plate reader based PAMPA-BBB assay; assay type: ADME; conditions: read-out: permeability
HT-1080 [3] = assay: Anti-ferroptotic activity against siRNA-mediated GPX4 knockdown induced ferroptosis in human HT-1080 cells at 1 uM preincubated for 12 hrs in Opti-MEM medium followed by compound addition and measured after 36 hrs; assay type: functional, cell-based
HT-22 [4] = assay: Anti-ferroptotic activity against RSL-3-induced morphological changes in […] cells assessed as retention of cell morphology at 1 uM measured after 24 hrs; assay type: functional, cell-based; conditions: Mus musculus
HT-22 [5] = assay: Reduction in ROS accumulation in RSL-3 treated […] cells assessed as reduction in fluorescence intensity at 1 uM incubated for 4 hrs by C11-BODIPY staining based confocal laser scanning microscopic analysis; assay type: functional, cell-based; conditions: Mus musculus
HT-22 [6] = assay: Anti-ferroptotic activity against Erastin-induced ferroptosis in […] cells assessed as […] cell viability measured after 24 hrs by MTT assay relative to control; assay type: functional, Mus musculus
[7] = Metal chelating activity assessed as compound-Fe3+ complex formation at 50 uM by UV-Vis spectroscopic analysis
[8] = Metal chelating activity assessed as compound-Fe2+ complex formation at 50 uM by UV-Vis spectroscopic analysis
Rattus norvegicus [9] = assay: Neuroprotective activity against middle cerebral artery occlusion-induced ischemia-reperfusion injury Sprague-Dawley rat model assessed as reduction in MDA level at 20 mg/kg, ip measured after 24 hrs by TTC staining based assay; assay type: functional, organism-based
Rattus norvegicus [10] = assay: Neuroprotective activity against middle cerebral artery occlusion-induced ischemia-reperfusion injury Sprague-Dawley rat model assessed as reduction in 4-HNE level at 20 mg/kg, ip measured after 24 hrs by TTC staining based assay; assay type: functional, organism-based
HT-1080 [11] = assay: Anti-ferroptotic activity against siRNA-mediated GPX4 knockdown induced ferroptosis in human HT-1080 cells at 5 uM preincubated for 12 hrs in Opti-MEM medium followed by compound addition and measured after 36 hrs; assay type: functional, cell-based
Rattus norvegicus [12] = assay: Neuroprotective activity against middle cerebral artery occlusion-induced ischemia-reperfusion injury Sprague-Dawley rat model assessed as reduction in infarct volume at 20 mg/kg, ip measured after 24 hrs by TTC staining based assay; assay type: functional, organism-based
HT-22 [13] = assay: Anti-ferroptotic activity against RSL-3 induced ferroptosis in […] cells assessed as inhibition of cell death measured after 24 hrs by MTT assay; assay type: functional, cell-based; conditions: Mus musculus, HT-22, 24 h
HT-22 [14] = assay: Inhibition of RSL-3 induced Ptgs2 mRNA expression in […] cells measured after 4 hrs by quantitative PCR analysis; assay type: functional, cell-based; conditions: Mus musculus, dose 1.25-5 µM
HT-22 [15] = assay: Upregulation of FSP1 mRNA level in […] cells measured after 6 hrs by quantitative PCR analysis; assay type: functional, cell-based; conditions: Mus musculus, dose 1.25-5 µM
Rattus norvegicus [16] = assay: Neuroprotective activity against middle cerebral artery occlusion-induced ischemia-reperfusion injury Sprague-Dawley rat model assessed as reduction in PTGS2 mRNA expression level at 20 mg/kg, ip measured after 24 hrs by TTC staining based assay; assay type: functional, organism-based
Rattus norvegicus [17] = assay: Neuroprotective activity against middle cerebral artery occlusion-induced ischemia-reperfusion injury Sprague-Dawley rat model assessed as reduction in neurobehavioral defects at 20 mg/kg, ip measured after 24 hrs by Longa test; assay type: functional, organism-based
HT-22 [18] = assay: Effect on intracellular Fe2+ level in […] cells assessed as fluorescence intensity at 5 uM measured after 10 hrs by Hoechst/FerroOrange staining based confocal laser microscopy; assay type: functional, cell-based; conditions: Mus musculus
Rattus norvegicus [19] = assay: Neuroprotective activity against middle cerebral artery occlusion-induced ischemia-reperfusion injury Sprague-Dawley rat model assessed as morphological changes at 20 mg/kg, ip measured after 24 hrs by Nissl staining based assay; assay type: functional, organism-based
HT-22 [20] = assay: Reduction in ROS accumulation in RSL-3 treated […] cells assessed as reduction in fluorescence intensity at 5 uM incubated for 4 hrs by C11-BODIPY staining based confocal laser scanning microscopic analysis; assay type: functional, cell-based; conditions: Mus musculus
HT-22 [21] = assay: Upregulation of FSP1 protein level in […] cells assessed as increase in reduced to oxidized COQ10 ratio measured after 6 hrs by Western blot analysis; assay type: functional, cell-based; conditions: Mus musculus
HT-22 [22] = assay: Reduction in cytosolic ROS accumulation in RSL-3 treated […] cells incubated for 4 hrs by H2DCFDA fluorescent probe based flow cytometry method; assay type: functional, cell-based; conditions: Mus musculus, dose 1.25-5 µM, DDE = dose-dependent effect
HT-22 [23] = assay: Anti-ferroptotic activity against RSL-3-induced morphological changes in […] cells assessed as retention of cell morphology measured after 24 hrs; assay type: functional, cell-based; conditions: Mus musculus, dose 1.25-5 µM, DDE = dose-dependent effect
HT-22 [24] = assay: Reduction in lipid ROS accumulation in RSL-3 treated […] cells incubated for 4 hrs by C11-BODIPY staining based flow cytometric analysis; assay type: functional, cell-based; conditions: Mus musculus, dose 1.25-5 µM, DDE = dose-dependent effect
HT-22 [25] = assay: Upregulation of FSP1 protein level in […] cells measured after 6 hrs by Western blot analysis; assay type: functional, cell-based; conditions: Mus musculus, dose 1.25-5 µM
Rattus norvegicus [26] = assay: Neuroprotective activity against middle cerebral artery occlusion-induced ischemia-reperfusion injury Sprague-Dawley rat model assessed as morphological changes at 20 mg/kg, ip measured after 24 hrs by H and E staining-based assay; assay type: functional, organism-based
HT-22 [27] = assay: Anti-ferroptotic activity against Erastin-induced ferroptosis in […] cells assessed as inhibition of cell death measured after 24 hrs by MTT assay; assay type: functional, cell-based; conditions: Mus musculus, HT-22, 24 h
HT-22 [28] = assay: Cytotoxicity against […] cells at 40 uM; assay type: toxicity, cell-based; conditions: mouse, ht-22, 40 µM

COc1cccc(OC)c1/C=C/C=C(/C(=O)N1CCN(c2ncccn2)CC1)c1ccccc1
EC50 (HT-22 [1]): > 20 µM

COc1ccc(/C(=C\C=C\c2ccccc2)C(=O)N2CCN(c3ncccn3)CC2)cc1OC
Papp at 10 h [2]: 16.4 ×10⁻⁶ cm/s
EC50 (HT-22 [1]): > 20 µM

CCOC(=O)c1ccc(NC2CCCCC2)c(N)c1
Activity (HT-1080 [3]): Active
Activity (HT-22 [4]): Active
Activity (HT-22 [5]): Active

O=C(/C(=C/C=C/c1cccc(O)c1)c1ccccc1)N1CCN(c2ncccn2)CC1
Papp at 10 h [2]: 9.9 ×10⁻⁶ cm/s
EC50 (HT-22 [1]): > 20 µM

COc1cc(/C=C/C=C(/C(=O)N2CCN(c3ncccn3)CC2)c2cccc(O)c2)ccc1O
Papp at 10 h [2]: 5.2 ×10⁻⁶ cm/s
Activity (HT-22 [6]): 84.2%
EC50 (HT-22 [1]): 4.5 µM

COc1cc(/C(=C\C=C\c2ccccc2)C(=O)N2CCN(c3ncccn3)CC2)ccc1O
Papp at 10 h [2]: 10.2 ×10⁻⁶ cm/s
EC50 (HT-22 [1]): > 20 µM

O=C(/C(=C/C=C/c1ccccc1)c1ccc(O)cc1)N1CCN(c2ncccn2)CC1
Papp at 10 h [2]: 8.3 ×10⁻⁶ cm/s
EC50 (HT-22 [1]): > 20 µM

COc1ccc(/C=C/C=C(/C(=O)N2CCN(c3ncccn3)CC2)c2ccccc2)c(OC)c1
Papp at 10 h [2]: 18.9 ×10⁻⁶ cm/s
EC50 (HT-22 [1]): > 20 µM

COc1cccc(/C=C/C=C(/C(=O)N2CCN(c3ncccn3)CC2)c2ccccc2)c1
Papp at 10 h [2]: 10.2 ×10⁻⁶ cm/s
EC50 (HT-22 [1]): > 20 µM

COc1ccccc1/C=C/C=C(/C(=O)N1CCN(c2ncccn2)CC1)c1ccccc1
Papp at 10 h [2]: 13.6 ×10⁻⁶ cm/s
EC50 (HT-22 [1]): > 20 µM

CC(=O)N(O)CCCCCNC(=O)CCC(=O)N(O)CCCCCNC(=O)CCC(=O)N(O)CCCCCN
Activity [7]: Active
Activity [8]: Active

COc1cc(/C=C/C=C(/C(=O)N2CCN(c3ncccn3)CC2)c2ccc(O)c(OC)c2)ccc1O
Papp at 10 h [2]: 5.3 ×10⁻⁶ cm/s
Activity (HT-22 [6]): 79.5%
EC50 (HT-22 [1]): 4 µM

COc1cc(/C=C/C=C(/C(=O)N2CCN(c3ncccn3)CC2)c2ccccc2)ccc1O
Activity (Rattus norvegicus [9]): Active
Activity (Rattus norvegicus [10]): Active
Activity (HT-1080 [11]): Active
Activity (Rattus norvegicus [12]): Active
EC50 (HT-22 [13]): 1700 nM
inhibition (HT-22 [14]; DDE = dose-dependent effect): Dde
Activity (HT-22 [15]): Active
Activity (Rattus norvegicus [16]): Active
Activity (Rattus norvegicus [17]): Active
Papp at 10 h [2]: 15.3 ×10⁻⁶ cm/s
Activity (HT-22 [18]): Active
Activity (Rattus norvegicus [19]): Active
Activity (HT-22 [20]): Active
Activity (HT-22 [21]): Active
Activity (HT-22 [22]): Dde
Activity (HT-22 [23]): Dde
Activity (HT-22 [6]): 76.7%
Activity (HT-22 [24]): Dde
EC50 (HT-22 [1]): 1.7 µM
Activity (HT-22 [25]): Active
Activity (Rattus norvegicus [26]): Active
EC50 (HT-22 [27]): 1700 nM

O=C(/C(=C/C=C/c1ccc(O)cc1)c1ccccc1)N1CCN(c2ncccn2)CC1
Papp at 10 h [2]: 5.2 ×10⁻⁶ cm/s
Activity (HT-22 [28]): Non-Toxic
Activity (HT-22 [6]): 81.9%
EC50 (HT-22 [1]): 12 µM

COc1ccc(/C=C/C=C(/C(=O)N2CCN(c3ncccn3)CC2)c2ccccc2)cc1
Papp at 10 h [2]: 15.7 ×10⁻⁶ cm/s
EC50 (HT-22 [1]): > 20 µM

COC(=O)c1ccc([C@H]2c3[nH]c4ccccc4c3C[C@H](C(=O)OC)N2C(=O)CCl)cc1
inhibition (HT-22 [14]): Active
Activity (HT-22 [5]): Active

O=C(/C(=C/C=C/c1ccccc1)c1cccc(O)c1)N1CCN(c2ncccn2)CC1
Papp at 10 h [2]: 14.5 ×10⁻⁶ cm/s
EC50 (HT-22 [1]): > 20 µM
